The source of these data is US9718810B2, “Solid state forms of a quinazoline derivative and its use as a BRAF inhibitor” (Ignyta, Inc., priority 2013, dated 2017).

Series [1] can be described thus: Gravimetric vapor sorption (GVS). In kind it is physicochemical. The conditions noted are these: for hygroscopicity: adsorption and desorption curves overlap; for XRPD after GVS analysis: form change after GVS cycles. On the procedure: GVS experiments have been carried out using the DVS-HT instrument (Surface Measurement Systems, London, UK). This instrument measures the uptake and loss of vapor gravimetrically using a recording ultra-microbalance with a mass resolution of ±0.1 μg. The vapor partial pressure (±1.0%) around the sample is controlled by mixing saturated and dry carrier gas streams using electronic mass flow controllers. The desired temperature is maintained at ±0.1° C. The samples (1-10 mg) were placed into the DVSHT and DVS-1 instruments at the desired temperature. The sample was loaded and unloaded at 40% RH and 25° C. (typical room conditions). A moisture sorption isotherm was performed as outlined below (2 scans giving 1 complete cycle). The software uses a least squares minimization procedure together with a model of the mass relaxation, to predict an asymptotic value. The measured mass equilibration value must be within 2% of that predicted by the software before the next % RH value is selected. The minimum equilibration time was set to 1 hour and the maximum to 4 hours.

A short description of series [2]: Kinetic solubility measurement in pure water. In kind it is physicochemical. The conditions noted are these: for pH: pH of the aqueous solubility sample; for Aqueous solubility: pure water, ambient room temperature, 20 minutes, expressed as free base. Here is the method: Typically 1-5 mg of samples were diluted to 10 mL with sample solvent (1:1 (v:v) Mobile phase A:Mobile phase B) and the assay concentrations were determined from an average of duplicate injections using the following HPLC method. The purity and impurity analyses are done using conventional HPLC.
The free base and the salts listed in the table below were added in excess (saturation) to water in a 2.0 mL glass vial. The samples were put on an end-to-end rotator (50 rpm) at ambient room temperature up to 20 minutes. After 20 minutes, a sampling was taken for HPLC analysis.

Series [3] can be described thus: Solid-state stress stability at 40° C./75% RH. Format: physicochemical. The conditions noted are these: for Area Purity / HPLC Assay / XRPD: 40° C./75% RH; for solid state stability: 40° C./75% relative humidity without desiccant. Here is the method:
Typically 1-5 mg of samples were diluted to 10 mL with sample solvent (1:1 (v:v) Mobile phase A:Mobile phase B) and the assay concentrations were determined from an average of duplicate injections using the following HPLC method. The purity and impurity analyses are done using conventional HPLC. Samples of Compound I free base and its salts (approximately 10 mg each) were stored at 40° C./75% RH in open glass vials (4 cm^3) over four weeks without desiccant. Stress stability studies were performed to get a timely impression of the influence of temperature and humidity on Form stability.

For series [4], the target named is T1, BRAF V600E (Homo sapiens, UniProt P15056, V600E). Description: BRAF V600E inhibition in isolated systems. Format: biochemical. The conditions noted are these: in vitro.
The target in series [5] is T1, BRAF V600E. Description: BRAF V600E inhibition in intact cells. Format: cell-based. The conditions noted are these: in vitro.
The nature of series [6]: Solubility of Form A0 in organic solvents at the boiling point. Format: physicochemical. The conditions noted are these: for solubility: organic solvent or mixture, thermodynamic from solid, read-out: Solubility Estimate at The Boiling Point. Here is the method:
The following procedure was used to assess the solubility of the anhydrous free base of Compound I (Form A0) in a range of nine organic solvents listed in Table 3. Using 1.8 mL HPLC vials, approximately 10 mg of Form A0 was stirred at the boiling point in 200 μL of nine different solvents. […] The additions were stopped when the solid dissolved or when 1000 μL had been dispensed. […] Methyl t-butyl ether was chosen as an anti-solvent (<10 mg/mL).

Setting [7] is: Methyl-t-butyl Ether, 55.2 ° C.

Like-named read-outs stand apart in the source and are kept apart here. Some results are limits rather than exact numbers.

T1 sequence (P15056 whole entry V600E): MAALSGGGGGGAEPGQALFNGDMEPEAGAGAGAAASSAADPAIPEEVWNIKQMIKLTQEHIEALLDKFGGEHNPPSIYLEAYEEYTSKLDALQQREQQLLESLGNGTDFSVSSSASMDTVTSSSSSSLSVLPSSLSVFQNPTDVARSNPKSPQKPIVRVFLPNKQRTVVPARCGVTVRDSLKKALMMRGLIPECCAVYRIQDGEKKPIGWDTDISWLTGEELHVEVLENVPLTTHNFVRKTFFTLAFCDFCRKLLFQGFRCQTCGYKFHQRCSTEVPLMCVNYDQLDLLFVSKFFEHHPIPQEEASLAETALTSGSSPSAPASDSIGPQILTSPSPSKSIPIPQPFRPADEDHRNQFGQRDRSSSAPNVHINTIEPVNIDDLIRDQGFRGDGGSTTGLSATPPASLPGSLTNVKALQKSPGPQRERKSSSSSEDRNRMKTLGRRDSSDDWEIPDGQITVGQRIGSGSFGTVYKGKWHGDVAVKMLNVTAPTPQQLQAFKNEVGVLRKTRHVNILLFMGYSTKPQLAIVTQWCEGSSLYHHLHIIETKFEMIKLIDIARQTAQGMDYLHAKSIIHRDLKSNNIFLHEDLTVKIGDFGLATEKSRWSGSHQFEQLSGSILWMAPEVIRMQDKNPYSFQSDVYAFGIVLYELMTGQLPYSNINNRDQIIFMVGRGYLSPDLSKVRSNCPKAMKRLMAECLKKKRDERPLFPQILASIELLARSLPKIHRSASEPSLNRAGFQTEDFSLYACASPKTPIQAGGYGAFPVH

By Aqueous solubility is commonly meant the dissolved amount per volume that the medium holds. Consider `COc1cc2ncnc(Oc3cccc(NC(=O)Nc4cc(C(C)(C)C(F)(F)F)on4)c3)c2cc1OC` [Bromide A1], for which, in series [1] (25° C.), the “amount of moisture adsorbed at 75% RH” value is given as “less than 0.7%” and the “GVS: Percent increase in mass at 90% RH” value was found to be 1.0%. In series [1] (25° C., listed as Bromide Form A1), the “GVS: Percent increase in mass at 90% RH” value is recorded as “approximately 1%”. In addition, in series [1], the hygroscopicity entry was “not hygroscopic” and the “XRPD after GVS analysis” value is “No change”. In series [1] (listed as Bromide Form A1), the “XRPD after GVS analysis” value is given as “compares nicely to the pattern of the material before GVS”. In series [2], this compound came in with a pH of 6.6 and an Aqueous solubility of 0.1 mg/mL.

Regarding `COc1cc2ncnc(Oc3cccc(NC(=O)Nc4cc(C(C)(C)C(F)(F)F)on4)c3)c2cc1OC.Cl` [Chloride A1], the “GVS: Percent increase in mass at 90% RH” value in series [1] (25° C.) turned out to be 1.7%. Moreover, the “XRPD after GVS analysis” value in series [1] was “No change”; in series [1] (listed as Chloride Form A1) it was “No form change occurred”. The pH in series [2] came to 7.3. Further, the “dissolution in pure water, ranking of salts” value in series [2] (pure water (pH=7)) is “best salt for dissolution in pure water”. The Aqueous solubility in series [2] came to 0.56 mg/mL. Besides, the “Area Purity” value was determined as 99.5% in series [3] (0 days), 98.7% in series [3] (7 days), 97.6% in series [3] (14 days) and 96.4% in series [3] (28 days). The “HPLC Assay” value in series [3] (0 days) was determined as 99.9%; in series [3] (7 days), 98.3%; in series [3] (14 days), 98.7%; in series [3] (28 days), 100.4%. For the same compound, the XRPD entry in series [3] (0 days), in series [3] (7 days), in series [3] (14 days) and in series [3] (28 days) was “Form A1” each time. The solid state stability result in series [3] (28 days) was “stable for 28 days”.

Turning to `COc1cc2ncnc(Oc3cccc(NC(=O)Nc4cc(C(C)(C)C(F)(F)F)on4)c3)c2cc1OC` [Compound I, 1-[3-(6,7-dimethoxy-quinazolin-4-yloxy)-phenyl]-3-[5-(2,2,2-trifluoro-1,1-dimethyl-ethyl)-isoxazol-3-yl]-urea], the “inhibits BRAF V600E” value in series [4] and in series [5] was “low nanomolar concentrations” throughout.

A word on the solubility: it is the concentration that dissolves in the medium under given conditions. In the case of `COc1cc2ncnc(Oc3cccc(NC(=O)Nc4cc(C(C)(C)C(F)(F)F)on4)c3)c2cc1OC` [Form A0], the “GVS: Percent increase in mass at 90% RH” value in series [1] (25° C.) came to 1.3%. In addition, the “XRPD after GVS analysis” value in series [1] is reported as “compares nicely to the pattern of the material before GVS”; in series [1] (listed as A0), “No change”. Also, the moisture uptake entry in series [1] (from 40 to about 90% RH) is listed as “less than 1.3 % (w/w)”. In addition, the pH in series [2] amounted to 7.4. The Aqueous solubility in series [2] (listed as Free base A0) is on record as <0.01 mg/mL. Besides, in series [6] (setting [7]), the “Solubility Estimate at The Boiling Point” value is <10 mg/mL. Moreover, the solubility in series [6] (Acetone, 56.5 ° C.) was > 50 mg/mL; in series [6] (Acetonitrile, 82.0 ° C.), < 20 mg/mL; in series [6] (Chloroform, 61.2 ° C.), > 50 mg/mL; in series [6] (Dichloromethane, 40.0 ° C.), > 20 mg/mL; in series [6] (Ethyl Acetate, 77.1 ° C.), < 30 mg/mL; in series [6] (Methanol, 64.7 ° C.), < 20 mg/mL. Also, the solubility is < 10 mg/mL in series [6] (setting [7]); > 50 mg/mL in series [6] (Tetrahydrofuran, 66.0 ° C.); < 30 mg/mL in series [6] (Toluene, 110.6 ° C.). For the same compound, the “Area Purity” value in series [3] (0 days) was 98.3%; in series [3] (6 days) it was 98.5%; in series [3] (14 days), 98.5%; in series [3] (28 days) it was 98.2%. In addition, the “HPLC Assay” value in series [3] (0 days) stood at 100.0%; in series [3] (6 days), 102.3%; in series [3] (14 days), 100.5%; in series [3] (28 days), 102.4%. Besides, the XRPD result in series [3] (0 days), in series [3] (6 days), in series [3] (14 days) and in series [3] (28 days) was “Form A0” in each case. Moreover, in series [3] (28 days), the solid state stability entry is recorded as “stable for 28 days”.

With `COc1cc2ncnc(Oc3cccc(NC(=O)Nc4cc(C(C)(C)C(F)(F)F)on4)c3)c2cc1OC.O=C(O)CC(=O)O` [Malonate A1], the “total uptake of water” value in series [1] (RH range of 0-90%, 25° C.) is < 4%. In addition, the “XRPD after GVS analysis” value in series [1] was “No form change occurred”. In series [2], this compound gave a pH of 6.6 and an Aqueous solubility of 0.07 mg/mL.

Take `COc1cc2ncnc(Oc3cccc(NC(=O)Nc4cc(C(C)(C)C(F)(F)F)on4)c3)c2cc1OC.O=P(O)(O)O` [Phosphate A1]: in series [1] (25° C.), the “amount of moisture adsorbed at 75% RH” value was “less than 1.8%” and the “GVS: Percent increase in mass at 90% RH” value was determined as 2.7%. The “GVS: Percent increase in mass at 90% RH” value in series [1] (25° C., listed as phosphate Form A1) is “approximately 2.7%”. Besides, in series [1], the hygroscopicity result is reported as “not hygroscopic” and the “XRPD after GVS analysis” value is “No change”. The “XRPD after GVS analysis” value in series [1] (listed as phosphate Form A1) is reported as “compares nicely to the pattern of the material before GVS”. Besides, in series [2], the pH is 6.8 and the Aqueous solubility was found to be 0.09 mg/mL.
